Read-outs that look alike come from different tables or passages of the source.
Assays:
[1] = logP determination by HPLC (reversed-phase C 18), EEC Directive 79/831 Annex V.A8; format: physicochemical; details: 43° C.
Experimental: The logP values given in the tables and preparation examples above are determined in accordance with EEC Directive 79/831 Annex V.A8 by HPLC (High Performance Liquid Chromatography) using a reversed-phase column (C 18). Temperature: 43° C.
In the acidic range, the determination is carried out at pH 2.3 using the mobile phases 0.1% aqueous phosphoric acid and acetonitrile; linear gradient from 10% acetonitrile to 90% acetonitrile.
In the neutral range, the determination is carried out at pH 7.5 using the mobile phases 0.01 molar aqueous phosphate buffer solution and acetonitrile; linear gradient from 10% acetonitrile to 90% acetonitrile.
Calibration is carried out using unbranched alkan-2-ones (of 3 to 16 carbon atoms) with known logP values (determination of the logP values by the retention times using linear interpolation between two successive alkanones).

[2] = system: Heliothis virescens caterpillars; test: Heliothis virescens test; format: in vivo; details: soya bean shoots dipped
Meloidogyne incognita = test: Meloidogyne test; format: in vivo; details: 20 ppm, nematicidal action by formation of galls on lettuce roots
Experimental: Vessels are filled with sand, solution of active compound, Meloidogyne incognita egg/larvae suspension and lettuce seeds. The lettuce seeds germinate and the plants develop. On the roots, galls are formed.
After the desired period of time, the nematicidal action is determined in % by the formation of galls. 100% means that no galls were found; 0% means that the number of galls on the treated plants corresponds to that of the untreated control.

[3] = system: caterpillars of the diamondback moth (Plutella xylostella); test: Plutella test; format: in vivo; details: cabbage leaves dipped
[4] = system: larvae of the armyworm (Spodoptera frugiperda); test: Spodoptera frugiperda test; format: in vivo; details: 1000 ppm, cabbage leaves dipped
Lucilia cuprina larvae = test: Blowfly larvae test/Development-inhibitory action; format: in vivo; details: 100 ppm; mortality of the larvae after 48 hours
Experimental: (§1) 20 mg of active compound are dissolved in one ml of dimethyl sulphoxide. To prepare a suitable formulation, the solution of active compound is diluted with water to the concentration desired in each case.
About 20 Lucilia cuprina larvae are introduced into a test tube which contains about 1 cm^3 of horsemeat and 0.5 ml of the preparation of active compound to be tested. The activity of the preparation of active compound is determined after 48 hours as the mortality of the larvae in %.
The test tubes are then transferred into a beaker whose bottom is covered with sand. After a further 12 days, the test tubes are removed and the pupae and flies are counted. The development-inhibitory action is stated as inhibition of hatching in % (ratio of pupae to flies that have hatched) after 1.5 times the development period of an untreated control.

[5] = system: Amblyomma hebraeum nymphs; test: Test with polyphagous tick nymphs, dip treatment; format: in vivo; details: nymphs immersed for 1 minute; after 4 weeks
Experimental: as §1
10 nymphs which have sucked themselves full are immersed for 1 minute into the preparation of active compound to be tested. The animals are transferred to Petri dishes (Ø 9.5 cm) fitted with filter discs and covered. After 4 weeks of storage in a climatized room, the mortality is determined.
100% means that none of the animals has undergone normal ecdysis. 0% means that all animals have undergone ecdysis.

[6] = system: larvae of the mustard beetle (Phaedon cochleariae); test: Phaedon larvae test; details: 1000 ppm, cabbage leaves dipped
[7] = system: larvae of the armyworm (Spodoptera exigua); test: Spodoptera exigua test; format: in vivo; details: 1000 ppm, cabbage leaves dipped
[8] = system: greenhouse red spider mite (Tetranychus urticae); test: Tetranychus test (OP-resistant/dip treatment); format: in vivo; details: 100 ppm, bean plants dipped
Experimental: After the desired period of time, the activity in % is determined.

[9] = system: cotton aphid (Aphis gossypii); test: Aphis gossypii test; format: in vivo; details: 200 ppm, cotton leaves dipped
[10] = system: peach aphid (Myzus persicae); test: Myzus test; format: in vivo; details: cabbage leaves dipped
[11] = pH 2.3, 0.1% aqueous phosphoric acid/acetonitrile, read-out: log P (pH 2.3)
[12] = reversed-phase C18 HPLC column, pH 2.3, 0.1% aqueous phosphoric acid/acetonitrile, read-out: log P (pH 2.3)

In the case of O=C1CCC(c2ccc(-c3ccc(OS(=O)(=O)C(F)(F)C(F)(F)C(F)(F)C(F)(F)F)cc3)cc2)N1 (stereo not drawn) [IX-b-2, 4′-(5-Oxo-2-pyrrolidinyl)-1,1′-biphenyl-4-yl 1,1,2,2,3,3,4,4,4-nonafluoro-1-butanesulphonate], the chromatographic logP [1, 11] is reported as 4.21.
Molecule CC(C)(C)OC(=O)NC(CCC(=O)c1c(F)cccc1F)c1ccc(-c2ccc(OS(=O)(=O)C(F)(F)C(F)(F)C(F)(F)C(F)(F)F)cc2)cc1 (stereo not drawn) [II-3, 4′-[1-[(tert-Butoxycarbonyl)amino]-4-(2,6-difluorophenyl)-4-oxobutyl]-1,1′-biphenyl-4-yl 1,1,2,2,3,3,4,4,4-nonafluoro-1-butanesulphonate] has a chromatographic logP [1, 11] of 6.05.
In the case of O=S(=O)(Oc1ccc(-c2ccc([C@H]3CCC(c4c(F)cccc4F)=N3)cc2)cc1)C(F)(F)F [I-5, 4′-[(2R)-5-(2,6-difluorophenyl)-3,4-dihydro-2H-pyrrol-2-yl]-1,1′-biphenyl-4-yl trifluoromethanesulphonate], the chromatographic logP [1, 12] is reported as 4.27, the “Kill rate in % after 6 days” value ([2]; 5 ppm) is reported as 100% and the “Kill rate in % after 14 days” value (Meloidogyne incognita) is reported as 100%. For the same molecule, the “Kill rate in % after 6 days” value ([3]; 5 ppm) was 100%, the “Kill rate in % after 6 days” value [4] was 100% and the “Action in % after 48 hours” value (Lucilia cuprina larvae) was 100%. For the same molecule, the “activity (mortality / no normal ecdysis)” value [5] was “good activity” and the “Kill rate in % after 7 days” value [6] was 100%.
With CN(C)S(=O)(=O)Oc1ccc(-c2ccccc2)cc1 [XIII-2, 1,1′-biphenyl-4-yl dimethylsulphamate] the chromatographic logP [1, 11] was 3.51 and the melting point was 105 to 107 °C.
In the case of CN(C)S(=O)(=O)Oc1ccc(-c2ccc(C3CCC(=O)N3)cc2)cc1 (stereo not drawn) [IX-b-1, 4′-(5-oxo-2-pyrrolidinyl)-1,1′-biphenyl-4-yl dimethylsulphamate], the chromatographic logP [1, 12] is reported as 2.23.
With CC(C)(C)OC(=O)N1C(=O)CC[C@@H]1c1ccc(OS(=O)(=O)C(F)(F)F)cc1 [VII-2, tert-butyl 2-oxo-(5R)-5-(4-{[(trifluoromethyl)sulphonyl]oxy}phenyl)-1-pyrrolidinecarboxylate] the chromatographic logP [1, 12] was 3.31.
With O=S(=O)(Oc1ccc(-c2ccc(C3CCC(c4c(F)cccc4F)=N3)cc2)cc1)C(F)(F)F (stereo not drawn) [I-7, 4′-[5-(2,6-difluorophenyl)-3,4-dihydro-2H-pyrrol-2-yl]-1,1′-biphenyl-4-yl trifluoromethanesulphonate] the chromatographic logP [1, 12] was 4.15, the “Kill rate in % after 6 days” value ([2]; 1000 ppm) was 100% and the “Kill rate in % after 6 days” value ([3]; 1000 ppm) was 100%. For the same molecule, the “Kill rate in % after 6 days” value [7] was 100%, the “Kill rate in % after 6 days” value [4] was 100% and the “Kill rate in % after 7 days” value [8] was 98%. The “Action in % after 48 hours” value (Lucilia cuprina larvae) was 100%, the “activity (mortality / no normal ecdysis)” value [5] was “good activity” and the “Kill rate in % after 7 days” value [6] was 100%.
Work on CC(C)(C)OC(=O)NC(CCC(=O)c1c(F)cccc1F)c1ccc(OS(=O)(=O)C(F)(F)F)cc1 (stereo not drawn) [II-1, 4-[1-[(tert-butoxycarbonyl)amino]-4-(2,6-difluorophenyl)-4-oxobutyl]phenyl trifluoromethanesulphonate] yielded a chromatographic logP [1, 11] of 4.38.
With CN(C)S(=O)(=O)Oc1ccc(-c2ccc(C3CCC(c4c(F)cccc4F)=N3)cc2)cc1 (stereo not drawn) [I-4, 4′-[5-(2,6-Difluorophenyl)-3,4-dihydro-2H-pyrrol-2-yl]-1,1′-biphenyl-4-yl dimethylsulphamate] the chromatographic logP [1, 12] was 3.06, the “Kill rate in % after 6 days” value [4] was 100% and the “Kill rate in % after 7 days” value [6] was 100%.
With O=S(=O)(Oc1ccc(-c2ccccc2)cc1)C(F)(F)C(F)(F)C(F)(F)C(F)(F)F [XIII-1, 1,1′-biphenyl-4-yl 1,1,2,2,3,3,4,4,4-nonafluoro-1-butanesulphonate] the chromatographic logP [1, 11] was 5.81.
For CC(C)(C)OC(=O)N1C(=O)CCC1c1ccc(-c2ccc(OS(=O)(=O)C(F)(F)C(F)(F)C(F)(F)C(F)(F)F)cc2)cc1 (stereo not drawn) [VII-3, tert-Butyl 2-(4′-{[(1,1,2,2,3,3,4,4,4-nonafluorobutyl)sulphonyl]oxy}-1,1′-biphenyl-4-yl)-5-oxo-1-pyrrolidinecarboxylate], the chromatographic logP [1, 11] was 5.44.
For O=S(=O)(Oc1ccc(-c2ccc(C3CCC(c4c(F)cccc4F)=N3)cc2)cc1)C(F)(F)C(F)(F)C(F)(F)C(F)(F)F (stereo not drawn) [I-3, 4′-[5-(2,6-Difluorophenyl)-3,4-dihydro-2H-pyrrol-2-yl]-1,1′-biphenyl-4-yl 1,1,2,2,3,3,4,4,4-nonafluoro-1-butanesulphonate], the chromatographic logP [1, 11] was 5.57, the “Kill rate in % after 6 days” value [4] was 100% and the “Kill rate in % after 7 days” value [8] was 98%. For the same molecule, the “Kill rate in % after 7 days” value [6] was 100%.
CC(C)(C)OC(=O)N1C(=O)CCC1c1ccc(OS(=O)(=O)C(F)(F)F)cc1 (stereo not drawn) [VII-1, tert-butyl 2-oxo-5-(4-{[(trifluoromethyl)-sulphonyl]oxy}phenyl)-1-pyrrolidinecarboxylate] gave a chromatographic logP [1, 12] of 3.31.
CN(C)S(=O)(=O)Oc1ccc(-c2ccc(C3CCC(=O)N3C(=O)OC(C)(C)C)cc2)cc1 (stereo not drawn) [VII-4, tert-Butyl 2-(4′-{[(dimethylamino)sulphonyl]oxy}-1,1′-biphenyl-4-yl)-5-oxo-1-pyrrolidinecarboxylate] gave a chromatographic logP [1, 12] of 3.31.
In the case of CN(C)S(=O)(=O)Oc1ccc(-c2ccc(C(CCC(=O)c3c(F)cccc3F)NC(=O)OC(C)(C)C)cc2)cc1 (stereo not drawn) [II-4, tert-Butyl 4-(2,6-difluorophenyl)-1-(4′-{[(dimethylamino)sulphonyl]oxy}-1,1′-biphenyl-4-yl)-4-oxobutylcarbamate], the chromatographic logP [1, 12] is reported as 4.25.
For O=S(=O)(Oc1ccc(C2CCC(c3c(F)cccc3F)=N2)cc1)C(F)(F)F (stereo not drawn) [I-1, 4-[5-(2,6-difluorophenyl)-3,4-dihydro-2H-pyrrol-2-yl]phenyl trifluoromethanesulphonate], the chromatographic logP [1, 12] was 3.49, the “Kill rate in % after 6 days” value [9] was 95% and the “Kill rate in % after 6 days” value ([10]; 20 ppm) was 95%. For the same molecule, the “Kill rate in % after 7 days” value [8] was 95%, the “Action in % after 48 hours” value (Lucilia cuprina larvae) was 100% and the “activity (mortality / no normal ecdysis)” value [5] was “good activity”. For the same molecule, the “Kill rate in % after 7 days” value [6] was 100%.
CN(C)S(=O)(=O)Oc1ccc(-c2ccccc2C2CCC(=O)N2)cc1 (single isomer, unassigned; isomer 2) [“ortho” isomer, 2′-(5-oxo-2-pyrrolidinyl)-1,1′-biphenyl-4-yl dimethylsulphamate] gave a chromatographic logP [1, 12] of 2.28.
For CC1(C)OB(c2ccc(C3CCC(c4c(F)cccc4F)=N3)cc2)OC1(C)C (stereo not drawn) [V-1, 5-(2,6-difluorophenyl)-2-[4-(4,4,5,5-tetramethyl-1,3,2-dioxaborolan-2-yl)phenyl]-3,4-dihydro-2H-pyrrole], the chromatographic logP ([1]; reversed-phase C18 HPLC column, pH 7.5, 0.01 molar aqueous phosphate buffer/acetonitrile, read-out: log P (pH 7.5)) was 4.46.
In the case of CC(C)(C)OC(=O)N[C@H](CCC(=O)c1c(F)cccc1F)c1ccc(OS(=O)(=O)C(F)(F)F)cc1 [II-2, 4-[(1R)-1-[(tert-Butoxycarbonyl)amino]-4-(2,6-difluorophenyl)-4-oxobutyl]phenyl trifluoromethanesulphonate], the chromatographic logP [1, 11] is reported as 4.37.
For O=S(=O)(Oc1ccc(C2CCC(c3c(F)cccc3F)=N2)cc1)c1ccc(OC(F)(F)F)cc1 (stereo not drawn) [I-6, 4-[5-(2,6-difluorophenyl)-3,4-dihydro-2H-pyrrol-2-yl]phenyl 4-(trifluoromethoxy)benzenesulphonate], the chromatographic logP [1, 12] was 3.83, the “Kill rate in % after 6 days” value ([10]; 1000 ppm) was 95% and the “Kill rate in % after 7 days” value [8] was 98%. For the same molecule, the “Action in % after 48 hours” value (Lucilia cuprina larvae) was 90% and the “Kill rate in % after 7 days” value [6] was 90%.

Reference: patent publication US20030220386A1, “Delta 1-pyrrolines for use as pesticides” (priority 2000, published 2003)
